What was measured:
[1] = tested on: Symmetric di-Methyl Arginine in Z-138 cells; experiment: Z-138 Methylation Assay (In Cell Western for symmetric di-methyl arginine); assay type: cell-based; settings: Homo sapiens, 96 hours incubation, symmetric di-methyl arginine normalised to DNA content, read-out: ICW EC50
Summary of the method: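 Z-138 cells were treated with compound for 96 h at 37 °C, then fixed on poly-D-lysine plates. Symmetric di-methyl arginine was detected by In-Cell Western (800 nm) with DRAQ5 DNA normalisation (700 nm). Percent inhibition used DMSO and 3 μM reference-compound controls; IC50 curves came from triplicate wells.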

[2] = tested on: Z-138 cell line; experiment: Z-138 Proliferation Assay (Cell Titer Glo); assay type: cell-based; settings: Homo sapiens, 120 h; Z-138 cells, 5 days incubation, ATP (Cell Titer Glo)
Summary of the method: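 Z-138 cells in RPMI with 10% FBS exposed 5 days at 37 °C to nine-point 3-fold dilutions, top 20 μM final, 0.2% DMSO, triplicate. ATP-based CellTiter-Glo luminescence; IC50 from 4-parameter fit of normalized curves.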

Row | SMILES | EC50 [1] | EC50 [2]
1 | CC(=O)N1CC(Nc2cc(C(=O)NC[C@H](O)CN3CCc4ncccc4C3)ncn2)C1 [Compound 2-9, (S)-6-((1-acetylazetidin-3-yl)amino)-N-(3-(7,8-dihydro-1,6-naphthyridin-6(5H)-yl)-2-hydroxypropyl)pyrimidine-4-carboxamide] | 101 to 1000 nM | > 5000 nM
2 | CC(=O)N1CCC(Nc2cc(C(=O)NC[C@H](O)CN3CCc4cccnc4C3)ncn2)CC1 [Compound 2-11, (S)-6-((1-acetylpiperidin-4-yl)amino)-N-(3-(5,6-dihydro-1,7-naphthyridin-7(8H)-yl)-2-hydroxypropyl)pyrimidine-4-carboxamide] | 101 to 1000 nM | > 5000 nM
3 | O=C(NC[C@H](O)CN1CCc2ncccc2C1)c1cc(NC2COC2)ncn1 [Compound 2-12, (S)—N-(3-(7,8-dihydro-1,6-naphthyridin-6(5H)-yl)-2-hydroxypropyl)-6-(oxetan-3-ylamino)pyrimidine-4-carboxamide] | > 5000 nM | 1000 to 10000 nM
4 | CC(=O)N1CC(Nc2cc(C(=O)NC[C@H](O)CN3CCc4cccnc4C3)ncn2)C1 [Compound 2-13] | 101 to 1000 nM | 1000 to 10000 nM
5 | CC(=O)N1CCC(Nc2cc(C(=O)NC[C@H](O)CN3CCc4ncccc4C3)ncn2)CC1 [Compound 2-14, (S)-6-((1-acetylpiperidin-4-yl)amino)-N-(3-(7,8-dihydro-1,6-naphthyridin-6(5H)-yl)-2-hydroxypropyl)pyrimidine-4-carboxamide] | 101 to 1000 nM | 1000 to 10000 nM
6 | O=C(NC[C@H](O)CN1CCc2cnccc2C1)c1cc(NC2COC2)ncn1 [Compound 2-15] | > 1000 nM | > 5000 nM
7 | CC(=O)N1CC(Nc2cc(C(=O)NC[C@H](O)CN3CCc4cnccc4C3)ncn2)C1 [Compound 2-16] | > 1000 nM | > 5000 nM
8 | CC(=O)N1CCC(Nc2cc(C(=O)NC[C@H](O)CN3CCc4cnccc4C3)ncn2)CC1 [Compound 2-17, (S)-6-((1-acetylpiperidin-4-yl)amino)-N-(3-(3,4-dihydro-2,6-naphthyridin-2(1H)-yl)-2-hydroxypropyl)pyrimidine-4-carboxamide] | > 1000 nM | > 5000 nM
9 | CC(=O)N1CCC(Nc2cc(C(=O)NC[C@H](O)CN3CCc4cnccc4C3)ccn2)CC1 [Compound 2-18] | 101 to 1000 nM | 101 to 1000 nM
10 | CC(=O)N1CCC(Nc2cc(C(=O)NC[C@H](O)CN3CCc4ccncc4C3)ccn2)CC1 [Compound 2-19, (S)-2-((1-acetylpiperidin-4-yl)amino)-N-(3-(3,4-dihydro-2,7-naphthyridin-2(1H)-yl)-2-hydroxypropyl)isonicotinamide] | > 1000 nM | > 5000 nM
11 | CC(=O)N1CCC(Nc2cc(C(=O)NC[C@H](O)CN3CCc4ncccc4C3)ccn2)CC1 [Compound 2-20, (S)-2-((1-acetylpiperidin-4-yl)amino)-N-(3-(7,8-dihydro-1,6-naphthyridin-6(5H)-yl)-2-hydroxypropyl)isonicotinamide] | 101 to 1000 nM | > 5000 nM
12 | CC(=O)N1CCC(Nc2cc(C(=O)NC[C@H](O)CN3CCc4cccnc4C3)ccn2)CC1 [Compound 2-21, (S)-2-((1-acetylpiperidin-4-yl)amino)-N-(3-(5,6-dihydro-1,7-naphthyridin-7(8H)-yl)-2-hydroxypropyl)isonicotinamide] | 101 to 1000 nM | > 5000 nM
13 | CC(=O)N1CC(Nc2cc(C(=O)NC[C@H](O)CN3CCc4ccncc4C3)ncn2)C1 [Compound 2-22] | > 1000 nM | > 5000 nM
14 | CC(=O)N1CCC(Nc2cc(C(=O)NC[C@H](O)CN3CCc4ccncc4C3)ncn2)CC1 [Compound 2-23, (S)-6-((1-acetylpiperidin-4-yl)amino)-N-(3-(3,4-dihydro-2,7-naphthyridin-2(1H)-yl)-2-hydroxypropyl)pyrimidine-4-carboxamide] | > 1000 nM | > 5000 nM
15 | O=C(NC[C@H](O)CN1CCc2ccncc2C1)c1cc(NC2COC2)ncn1 [Compound 2-24] | > 1000 nM | > 5000 nM
16 | O=C(COc1cccc2cccnc12)NCC(O)CN1CCc2nc[nH]c2C1 (stereo not drawn) [Compound 3-10, N-(2-hydroxy-3-{3H,4H,5H,6H,7H-imidazo[4,5-c]pyridin-5-yl}propyl)-2-(quinolin-8-yloxy)acetamide] | > 1000 nM | > 5000 nM
17 | CC(=O)N1CC(Nc2cc(C(=O)NC[C@H](O)CN3CCc4[nH]nc(-c5ccccc5)c4C3)ncn2)C1 [Compound 3-11, (S)-6-((1-acetylazetidin-3-yl)amino)-N-(2-hydroxy-3-(3-phenyl-6,7-dihydro-1H-pyrazolo[4,3-c]pyridin-5(4H)-yl)propyl)pyrimidine-4-carboxamide] | > 1000 nM | > 5000 nM
18 | CC(=O)N1CCC(Nc2cc(C(=O)NC[C@H](O)CN3CCc4[nH]nc(-c5ccccc5)c4C3)ncn2)CC1 [Compound 3-12, (S)-6-((1-acetylpiperidin-4-yl)amino)-N-(2-hydroxy-3-(3-phenyl-6,7-dihydro-1H-pyrazolo[4,3-c]pyridin-5(4H)-yl)propyl)pyrimidine-4-carboxamide] | > 1000 nM | > 5000 nM

Row | SMILES | EC50 [1] | EC50 [2]
19 | O=C(NC[C@H](O)CN1CCc2[nH]nc(-c3ccccc3)c2C1)c1cc(NC2COC2)ncn1 [Compound 3-17, (S)—N-(2-hydroxy-3-(3-phenyl-6,7-dihydro-1H-pyrazolo[4,3-c]pyridin-5(4H)-yl)propyl)-6-(oxetan-3-ylamino)pyrimidine-4-carboxamide] | > 1000 nM | > 5000 nM
20 | CC(=O)N1CCC(Nc2cc(C(=O)NC[C@H](O)CN3CCc4[nH]ncc4C3)ccn2)CC1 [Compound 3-21] | > 1000 nM | > 5000 nM
21 | CC(=O)N1CCC(Nc2cc(C(=O)NC[C@H](O)CN3CCc4c(ncn4C)C3)ccn2)CC1 [Compound 3-22, (S)-2-((1-acetylpiperidin-4-yl)amino)-N-(2-hydroxy-3-(1-methyl-6,7-dihydro-1H-imidazo[4,5-c]pyridin-5(4H)-yl)propyl)isonicotinamide] | > 1000 nM | > 5000 nM
22 | CC(=O)N1CC(Nc2cc(C(=O)NC[C@H](O)CN3CCc4[nH]ncc4C3)ncn2)C1 [Compound 3-23] | > 1000 nM | > 5000 nM
23 | CC(=O)N1CCC(Nc2cc(C(=O)NC[C@H](O)CN3CCc4ncn(C)c4C3)ccn2)CC1 [Compound 3-24, (S)-2-((1-acetylpiperidin-4-yl)amino)-N-(2-hydroxy-3-(3-methyl-6,7-dihydro-3H-imidazo[4,5-c]pyridin-5(4H)-yl)propyl)isonicotinamide] | > 1000 nM | > 5000 nM
24 | Cn1cnc2c1CN(C[C@@H](O)CNC(=O)c1cc(NC3COC3)ncn1)CC2 [Compound 3-26, (S)—N-(2-hydroxy-3-(3-methyl-6,7-dihydro-3H-imidazo[4,5-c]pyridin-5(4H)-yl)propyl)-6-(oxetan-3-ylamino)pyrimidine-4-carboxamide] | > 1000 nM | > 5000 nM
25 | Cn1cc2c(n1)CCN(C[C@@H](O)CNC(=O)c1cc(NC3COC3)ncn1)C2 [Compound 3-27] | > 1000 nM | > 5000 nM
26 | Cn1cnc2c1CCN(C[C@@H](O)CNC(=O)c1cc(NC3COC3)ncn1)C2 [Compound 3-28] | > 1000 nM | > 5000 nM
27 | CC(=O)N1CC(Nc2cc(C(=O)NC[C@H](O)CN3CCc4[nH]cnc4C3)ncn2)C1 [Compound 3-33, (S)-6-((1-acetylazetidin-3-yl)amino)-N-(3-(6,7-dihydro-1H-imidazo[4,5-c]pyridin-5(4H)-yl)-2-hydroxypropyl)pyrimidine-4-carboxamide] | > 1000 nM | > 5000 nM
28 | CC(=O)N1CCC(Nc2cc(C(=O)NC[C@H](O)CN3CCc4[nH]cnc4C3)ncn2)CC1 [Compound 3-34, (S)-6-((1-acetylpiperidin-4-yl)amino)-N-(3-(6,7-dihydro-1H-imidazo[4,5-c]pyridin-5(4H)-yl)-2-hydroxypropyl)pyrimidine-4-carboxamide] | > 1000 nM | > 5000 nM
29 | CC(=O)N1CCC(Nc2cc(C(=O)NC[C@H](O)CN3CCc4c(ncn4C)C3)ncn2)CC1 [Compound 3-35, (S)-6-((1-acetylpiperidin-4-yl)amino)-N-(2-hydroxy-3-(1-methyl-6,7-dihydro-1H-imidazo[4,5-c]pyridin-5(4H)-yl)propyl)pyrimidine-4-carboxamide] | > 1000 nM | > 5000 nM
30 | CC(=O)N1CCC(Nc2cc(C(=O)NC[C@H](O)CN3CCc4[nH]cnc4C3)ccn2)CC1 [Compound 3-36, (S)-2-((1-acetylpiperidin-4-yl)amino)-N-(3-(6,7-dihydro-1H-imidazo[4,5-c]pyridin-5(4H)-yl)-2-hydroxypropyl)isonicotinamide] | > 1000 nM | > 5000 nM
31 | O=C(NC[C@H](O)CN1CCc2[nH]cnc2C1)c1cc(NC2COC2)ncn1 [Compound 3-38, (S)—N-(3-(6,7-dihydro-1H-imidazo[4,5-c]pyridin-5(4H)-yl)-2-hydroxypropyl)-6-(oxetan-3-ylamino)pyrimidine-4-carboxamide] | > 1000 nM | > 5000 nM
32 | Cn1ncc2c1CCCN2C[C@@H](O)CNC(=O)c1cc(NC2COC2)ncn1 [Compound 3-40] | > 1000 nM | > 5000 nM
33 | Cc1nc2c([nH]1)CCN(C[C@@H](O)CNC(=O)c1cc(NC3COC3)ncn1)C2 [Compound 3-41] | > 1000 nM | > 5000 nM
34 | CC(=O)N1CC(Nc2cc(C(=O)NC[C@H](O)CN3CCc4cn[nH]c4C3)ncn2)C1 [Compound 3-44] | > 1000 nM | > 5000 nM
35 | CC(=O)N1CC(Nc2cc(C(=O)NC[C@H](O)CN3CCc4c(ncn4C)C3)ncn2)C1 [Compound 3-45] | > 1000 nM | > 5000 nM
36 | CC(=O)N1CC(Nc2cc(C(=O)NC[C@H](O)CN3CCCc4c3cnn4C)ncn2)C1 [Compound 3-46] | > 1000 nM | > 5000 nM
